Target: T1, recombinant human pancreatic GLK (Homo sapiens, UniProt P35557)
T1 sequence (P35557 1-465): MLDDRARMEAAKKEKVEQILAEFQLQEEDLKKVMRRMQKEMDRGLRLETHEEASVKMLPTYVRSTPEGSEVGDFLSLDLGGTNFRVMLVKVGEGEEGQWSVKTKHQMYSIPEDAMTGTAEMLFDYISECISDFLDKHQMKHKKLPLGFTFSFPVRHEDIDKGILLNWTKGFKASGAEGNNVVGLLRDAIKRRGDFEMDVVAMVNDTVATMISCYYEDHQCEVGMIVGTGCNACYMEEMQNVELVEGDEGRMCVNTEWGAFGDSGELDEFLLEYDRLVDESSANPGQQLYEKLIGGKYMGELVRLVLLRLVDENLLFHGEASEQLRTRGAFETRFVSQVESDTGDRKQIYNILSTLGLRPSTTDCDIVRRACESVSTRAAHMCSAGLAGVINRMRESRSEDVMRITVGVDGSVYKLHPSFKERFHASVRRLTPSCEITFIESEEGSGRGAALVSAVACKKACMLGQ
Assay: biochemical

SMILES | EC50 [nM]
O=C(Nc1ccccn1)[C@H](CCO)Oc1ncnc2c1cnn2-c1ncccc1Cl [Example 143c, (2S)-2-[1-(3-chloro-2-pyridyl)pyrazolo[4,5-e]pyrimidin-4-yl]oxy-4-hydroxy-N-(2-pyridyl)butanamide] | 610
CCC(C)C(Sc1ncnc2c1cnn2-c1ccccc1Cl)C(=O)Nc1ccon1 (centres unmarked) [Example 55, 2-{[1-(2-chlorophenyl)-1H-pyrazolo[3,4-d]pyrimidin-4-yl]thio}-N-isoxazol-3-yl-3-methylpentanamide] | > 20000
CCOC[C@H](Oc1ncnc2c1cnn2-c1cccnc1C)C(=O)Nc1ccc(Cl)cn1 [Example 150, (2S)—N-(5-chloropyridin-2-yl)-3-ethoxy-2-(1-(2-methylpyridin-3-yl)-1H-pyrazolo[3,4-d]pyrimidin-4-yloxy)propanamide] | 1000
C[C@H](CO)OC[C@H](Oc1ncnc2c1cnn2-c1c(Cl)cccc1C#N)C(=O)Nc1ccc(F)cn1 [Example 246, (2S)-2-[1-(2-chloro-6-cyano-phenyl)pyrazolo[3,4-d]pyrimidin-4-yl]oxy-N-(5-fluoro-2-pyridyl)-3-[(1R)-2-hydroxy-1-methyl-ethoxy]propanamide] | 220
Cc1ccc(NC(=O)[C@H](CCNS(C)(=O)=O)Oc2ncnc3c2cnn3-c2ccccc2Cl)nc1 [Example 164, (2S)-2-(1-(2-chlorophenyl)-1H-pyrazolo[3,4-d]pyrimidin-4-yloxy)-N-(5-methylpyridin-2-yl)-4-(methylsulfonamido)butanamide] | 930
CCCCC(Oc1ncnc2c1cnn2C)C(=O)Nc1ccc(C)cn1 (centres unmarked) [Example 39, 2-[(1-methyl-1H-pyrazolo[3,4-d]pyrimidin-4-yl)oxy]-N-(5-methylpyridin-2-yl)hexanamide] | 11000
CC(C)OCC(Oc1ncnc2c1cnn2-c1ccccc1Cl)C(=O)Nc1nncs1 (centres unmarked) [Example 117, 2-[1-(2-chlorophenyl)pyrazolo[4,5-e]pyrimidin-4-yl]oxy-3-isopropoxy-N-(1,3,4-thiadiazol-2-yl)propanamide] | 6800
C[C@H](CO)OC[C@H](Oc1ncnc2c1cnn2-c1c(Cl)cccc1C#N)C(=O)Nc1ccc(C#N)cn1 [Example 251, (2S)-2-[1-(2-chloro-6-cyano-phenyl)pyrazolo[3,4-d]pyrimidin-4-yl]oxy-N-(5-cyano-2-pyridyl)-3-[(1R)-2-hydroxy-1-methyl-ethoxy]propanamide] | 350
Cc1ccccc1-n1nnc2c(O[C@@H](COCCO)C(=O)Nc3ccc(Cl)cn3)ncnc21 [Example 198, (2S)—N-(5-chloropyridin-2-yl)-3-(2-hydroxyethoxy)-2-(3-o-tolyl-3H-[1,2,3]triazolo[4,5-d]pyrimidin-7-yloxy)propanamide] | 2200
Cc1ccc(NC(=O)[C@H](COC[C@H](C)O)Oc2ncnc3c2cnn3-c2ncccc2Cl)nc1 [Example 204, (2S)-2-(1-(3-chloropyridin-2-yl)-1H-pyrazolo[3,4-d]pyrimidin-4-yloxy)-3-((S)-2-hydroxypropoxy)-N-(5-methylpyridin-2-yl)propanamide] | 1300
Cc1ccc(NC(=O)[C@@H](Oc2ncnc3c2cnn3-c2ncccc2Cl)C(C)C)nc1 [Example 86, (2S)-2-(1-(3-chloropyridin-2-yl)-1H-pyrazolo[3,4-d]pyrimidin-4-yloxy)-3-methyl-N-(5-methylpyridin-2-yl)butanamide] | 1500
CC(C)OCC(Oc1ncnc2c1cnn2-c1ccccc1Cl)C(=O)Nc1ncns1 (centres unmarked) [Example 114, 2-[1-(2-chlorophenyl)pyrazolo[4,5-e]pyrimidin-4-yl]oxy-3-isopropoxy-N-(1,2,4-thiadiazol-5-yl)propanamide] | 2100
O=C(Nc1ccccn1)[C@H](COCCO)Oc1ncnc2c1cnn2-c1ccccc1Cl [Example 201, (2S)-2-(1-(2-chlorophenyl)-1H-pyrazolo[3,4-d]pyrimidin-4-yloxy)-3-(2-hydroxyethoxy)-N-(pyridin-2-yl)propanamide] | 650
CC(C)OCC(Oc1ncnc2c1cnn2-c1ccccc1Cl)C(=O)Nc1ncccn1 (centres unmarked) [2-[1-(2-chlorophenyl)pyrazolo[4,5-e]pyrimidin-4-yl]oxy-3-isopropoxy-N-pyrimidin-2-yl-propanamide] | > 100000
CCOC[C@H](Oc1ncnc2c1cnn2-c1ncccc1Cl)C(=O)Nc1ccc(Cl)cn1 [Example 127g, (2S)—N-(5-chloro-2-pyridyl)-2-[1-(3-chloro-2-pyridyl)pyrazolo[4,5-e]pyrimidin-4-yl]oxy-3-ethoxy-propanamide] | 300
C[C@H](CO)OC[C@H](Oc1ncnc2c1cnn2-c1ccccc1Cl)C(=O)Nc1ccc(F)cn1 [Example 245, (2S)-2-[1-(2-chlorophenyl)pyrazolo[3,4-d]pyrimidin-4-yl]oxy-N-(5-fluoro-2-pyridyl)-3-[(1R)-2-hydroxy-1-methyl-ethoxy]propanamide] | 470

SMILES | EC50 [nM]
CCCCCCC(Sc1ncnc2c1cnn2-c1ccccc1Cl)C(=O)Nc1ccon1 (centres unmarked) [Example 64, 2-{[1-(2-chlorophenyl)-1H-pyrazolo[3,4-d]pyrimidin-4-yl]thio}-N-isoxazol-3-yloctanamide] | 10000
CCOC[C@H](Oc1ncnc2c1cnn2-c1ncccc1Cl)C(=O)Nc1ccc(C)cn1 [Example 103, (2S)-2-[1-(3-Chloropyridin-2-yl)pyrazolo[4,5-e]pyrimidin-4-yl]oxy-3-ethoxy-N-(5-methylpyridin-2-yl)propanamide] | 280
COCC[C@H](Oc1ncnc2c1cnn2-c1ccccc1C)C(=O)Nc1ccc(C)cn1 [Example 17, (S)-4-methoxy-2-{[1-(2-methylphenyl)-1H-pyrazolo[3,4-d]pyrimidin-4-yl]oxy}-N-(5-methylpyridin-2-yl)butanamide] | 64
Cc1cnc(NC(=O)[C@H](COC2CCC2)Oc2ncnc3c2cnn3-c2ncccc2C)cn1 [Example 141, (2S)-3-cyclobutoxy-N-(5-methylpyrazin-2-yl)-2-(1-(3-methylpyridin-2-yl)-1H-pyrazolo[3,4-d]pyrimidin-4-yloxy)propanamide] | 340
Cc1cnc(NC(=O)C(COC(C)C)Oc2ncnc3c2cnn3-c2ccccc2Cl)s1 (centres unmarked) [Example 111, 2-[1-(2-chlorophenyl)pyrazolo[4,5-e]pyrimidin-4-yl]oxy-3-isopropoxy-N-(5-methylthiazol-2-yl)propanamide] | 330
Cc1ccc(NC(=O)[C@H](CN2CC(O)C2)Oc2ncnc3c2cnn3-c2ccccc2Cl)nc1 [Example 205, (2S)-2-(1-(2-chlorophenyl)-1H-pyrazolo[3,4-d]pyrimidin-4-yloxy)-3-(3-hydroxyazetidin-1-yl)-N-(5-methylpyridin-2-yl)propanamide] | 240
Cc1ccnc(NC(=O)C(COC(C)C)Oc2ncnc3c2cnn3-c2ccccc2Cl)c1 (centres unmarked) [Example 116, 2-[1-(2-chlorophenyl)pyrazolo[4,5-e]pyrimidin-4-yl]oxy-3-isopropoxy-N-(4-methyl-2-pyridyl)propanamide] | 2300
O=C(Nc1ccc(Cl)cn1)[C@H](COCCO)Oc1ncnc2c1cnn2-c1cccc(Cl)c1Cl [Example 202, (2S)—N-(5-chloropyridin-2-yl)-2-(1-(2,3-dichlorophenyl)-1H-pyrazolo[3,4-d]pyrimidin-4-yloxy)-3-(2-hydroxyethoxy)propanamide] | 340
CC(C)OC[C@H](Oc1ncnc2c1cnn2-c1ncccc1Cl)C(=O)Nc1ccc(C(=O)N(C)C)cn1 [Example 178, 6-((2S)-2-(1-(3-chloropyridin-2-yl)-1H-pyrazolo[3,4-d]pyrimidin-4-yloxy)-3-isopropoxypropanamido)-N,N-dimethylnicotinamide] | 4300
COCC[C@@H](Oc1ncnc2c1cnn2-c1ccccc1OC)C(=O)Nc1nc(C)cs1 [Example 36, (R)-4-Methoxy-2-{[1-(2-methoxyphenyl)-1H-pyrazolo[3,4-d]pyrimidin-4-yl]oxy}-N-(4-methyl-1,3-thiazol-2-yl)butanamide] | ≥ 100000
CCCCCCC(Sc1ncnc2c1cnn2-c1ccccc1Cl)C(=O)Nc1ccc(C)cn1 (centres unmarked) [2-[1-(2-chlorophenyl)pyrazolo[4,5-e]pyrimidin-4-yl]sulfanyl-N-(5-methyl-2-pyridyl)octanamide] | > 100000
CCC(C)C(Sc1ncnc2c1cnn2-c1ccccc1Cl)C(=O)Nc1nc(C)cs1 (centres unmarked) [Example 54, 2-{[1-(2-chlorophenyl)-1H-pyrazolo[3,4-d]pyrimidin-4-yl]thio}-3-methyl-N-(4-methyl-1,3-thiazol-2-yl)pentanamide] | 4000
N#Cc1ccc(NC(=O)[C@H](CN2CC(O)C2)Oc2ncnc3c2cnn3-c2ccccc2Cl)nc1 [Example 223, (2S)-2-[1-(2-chlorophenyl)pyrazolo[3,4-d]pyrimidin-4-yl]oxy-N-(5-cyano-2-pyridyl)-3-(3-hydroxyazetidin-1-yl)propanamide] | 310
O=C(Nc1ccccn1)[C@H](COCCO)Oc1ncnc2c1cnn2-c1ccccc1C(F)(F)F [Example 199, (2S)-3-(2-hydroxyethoxy)-N-(pyridin-2-yl)-2-(1-(2-(trifluoromethyl)phenyl)-1H-pyrazolo[3,4-d]pyrimidin-4-yloxy)propanamide] | 1100
COC[C@@H](Oc1ncnc2c1cnn2-c1ccccc1OC)C(=O)Nc1ccc(C)cn1 [Example 5, (R)-3-methoxy-2-{[1-(2-methoxyphenyl)-1H-pyrazolo[3,4-d]pyrimidin-4-yl]oxy}-N-(5-methylpyridin-2-yl)propanamide] | ≥ 100000
Cc1ccc(NC(=O)[C@H](COC(C)C)Oc2ncnc3c2cnn3-c2ccccc2Cl)nc1 [Example 98, (2S)-2-(1-(2-chlorophenyl)-1H-pyrazolo[3,4-d]pyrimidin-4-yloxy)-3-isopropoxy-N-(5-methylpyridin-2-yl)propanamide] | 110
